From ChEMBL document CHEMBL1126579, “6-Azasteroids: potent dual inhibitors of human type 1 and 2 steroid 5 alpha-reductase” (J Med Chem, 1993) come the findings set out here.

Data set [1] deals with T1, 3-oxo-5-alpha-steroid 4-dehydrogenase 1 (Homo sapiens, UniProt P18405).
T1 sequence (P18405 whole entry): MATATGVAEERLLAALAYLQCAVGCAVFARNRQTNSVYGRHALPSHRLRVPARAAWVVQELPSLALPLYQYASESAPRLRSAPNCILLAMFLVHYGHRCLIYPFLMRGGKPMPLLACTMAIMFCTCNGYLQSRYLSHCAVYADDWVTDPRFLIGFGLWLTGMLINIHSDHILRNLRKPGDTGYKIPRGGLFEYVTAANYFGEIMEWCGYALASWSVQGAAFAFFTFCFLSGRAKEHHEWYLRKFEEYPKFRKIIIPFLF
Briefly: Inhibition of recombinant human 5-alpha reductase-1 […] after pre-incubation for 10 minutes.

Data set [2] addresses T2, 3-oxo-5-alpha-steroid 4-dehydrogenase 2 (Homo sapiens, UniProt P31213).
T2 sequence (P31213 whole entry): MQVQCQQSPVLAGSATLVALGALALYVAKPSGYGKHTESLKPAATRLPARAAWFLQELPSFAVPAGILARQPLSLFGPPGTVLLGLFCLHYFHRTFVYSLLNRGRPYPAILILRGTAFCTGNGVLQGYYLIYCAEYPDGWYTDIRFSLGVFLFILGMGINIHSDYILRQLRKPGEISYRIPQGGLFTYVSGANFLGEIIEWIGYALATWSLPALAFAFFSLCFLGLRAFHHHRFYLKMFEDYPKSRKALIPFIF
Kind of data set: Inhibition of recombinant human 5-alpha reductase-2 […] after pre-incubation for 10 minutes.

Data set [3] has as its system Rattus norvegicus. Briefly: In vivo evaluation in chronic castrated rat to inhibit T-stimulated prostate growth expressed as percentage reduction. The format is functional, Prostate gland. On the set-up: concentration or dose not given beside the values.
Data set [4] in a line: Bioavailability after oral administration in dog. The class given is ADME, organism-based, Canis lupus familiaris. The following applies: in vivo.
The nature of data set [5]: Half-life in dog. The format is ADME, organism-based, Canis lupus familiaris. The settings on record: in vivo.

Turning to `CC(C)NC(=O)[C@H]1CCC2C3CNC4=CC(=O)CC[C@]4(C)C3CC[C@@]21C` (some centres undefined), in data set [1], the Ki turned out to be 6000 nM.

In the case of `C[C@]12CCC(=O)C=C1NCC1C2CC[C@@]2(C)C1CC[C@@H]2C(=O)NCc1ccccc1` (some centres undefined), in data set [1], the Ki came out at 360 nM.

In the case of `CCN(C)C(=O)[C@H]1CCC2C3CNC4=CC(=O)CC[C@]4(C)C3CC[C@@]21C` (some centres undefined), the Ki in data set [1] stood at 720 nM. For the same compound, the IC50 in data set [2] was determined as 2.8 nM.

On to `CC(C)N(C(=O)[C@H]1CCC2C3CNC4=CC(=O)CC[C@]4(C)C3CC[C@@]21C)C(C)C` (some centres undefined), for which, in data set [1], the Ki stood at 190 nM. In addition, the IC50 in data set [2] was determined as 0.36 nM.

On to `C[C@]12CCC(=O)C=C1NCC1C2CC[C@@]2(C)C1CC[C@@H]2C(=O)NC12C[C@H]3C[C@@H](C1)C[C@@H](C2)C3` (some centres undefined), for which the Ki in data set [1] turned out to be 11 nM. Besides, in data set [3], the Reduction came to 18%.

For `C[C@]12CCC(=O)C=C1NCC1C2CC[C@@]2(C)C1CC[C@@H]2C(=O)C1[C@H]2C[C@@H]3C[C@@H](C[C@H]1C3)C2` (some centres undefined), in data set [1], the inhibition constant (Ki) amounted to 6.9 nM. For the same compound, the IC50 in data set [2] was determined as 0.04 nM. The Reduction in data set [3] came out at 26%.

Take `C[C@]12CCC(=O)C=C1NCC1C2CC[C@@]2(C)C1CC[C@@H]2C(=O)NC(c1ccccc1)c1ccccc1` (some centres undefined): the bioavailability in data set [4] was found to be 80%. Besides, the Ki in data set [1] is 30 nM. In addition, in data set [2], the half-maximal inhibitory concentration (IC50) was 0.09 nM. The same compound registered a Reduction in data set [3] of 43%.

For `C[C@]12CCC(=O)C=C1NCC1C2CC[C@@]2(C)C1CC[C@@H]2C(=O)N1CCOCC1` (some centres undefined), the Ki in data set [1] was 2200 nM. In addition, in data set [2], the IC50 was determined as 7.1 nM.

Turning to `COC(=O)[C@H]1CCC2C3CNC4=CC(=O)CC[C@]4(C)C3CC[C@@]21C` (some centres undefined), the Ki in data set [1] was 150 nM.

On to `C[C@]12CCC(=O)C=C1NCC1C2CC[C@@]2(C)C1CC[C@@H]2C(=O)NC(c1ccc(F)cc1)c1ccc(F)cc1` (some centres undefined), for which, in data set [1], the Ki worked out at 20 nM. This compound displayed a Reduction in data set [3] of 43%.

Take `CON(C)C(=O)[C@H]1CCC2C3CNC4=CC(=O)CC[C@]4(C)C3CC[C@@]21C` (some centres undefined): the inhibition constant Ki in data set [1] turned out to be 2300 nM. The concentration for half-maximal inhibition (IC50) in data set [2] worked out at 2.4 nM.

As to `C[C@]12CCC(=O)C=C1NCC1C2CC[C@@]2(C)C1CC[C@@H]2C(=O)NC(c1ccccc1)(c1ccccc1)c1ccccc1` (some centres undefined), in data set [1], the Ki is 8.2 nM. Besides, the IC50 in data set [2] was determined as 0.09 nM. The same compound yielded a Reduction in data set [3] of 4%.

`C[C@]12CCC(=O)C=C1NCC1C2CC[C@@]2(C)C1CC[C@@H]2C(=O)N1CCNCC1` (some centres undefined): in data set [1], the Ki stood at 8600 nM.

In the case of `C[C@]12CCC(=O)C=C1NCC1C2CC[C@@]2(C)C1CC[C@@H]2C(=O)NN(c1ccccc1)c1ccccc1` (some centres undefined), the Ki in data set [1] is 14 nM. Further, the IC50 in data set [2] turned out to be 0.23 nM. The Reduction in data set [3] turned out to be 38%.

Regarding `C[C@]12CCC(=O)C=C1NCC1C2CC[C@@]2(C)C1CC[C@@H]2C(=O)NC(c1ccc(Cl)cc1)c1ccc(Cl)cc1` (some centres undefined), the half-life in data set [5] is 720 min. Besides, the Ki in data set [1] is 20 nM. Besides, the IC50 in data set [2] worked out at 0.12 nM. In data set [3], this compound showed a Reduction of 31%.

In the case of `CC(C)CC(=O)[C@H]1CCC2C3CNC4=CC(=O)CC[C@]4(C)C3CC[C@@]21C` (some centres undefined), the Ki in data set [1] is 9 nM. Moreover, the half-inhibitory concentration (IC50) in data set [2] turned out to be 0.08 nM. The Reduction in data set [3] is 18%.

For `C[C@]12CCC(=O)C=C1NCC1C2CC[C@@]2(C)C1CC[C@@H]2C(=O)N(Cc1ccccc1)Cc1ccccc1` (some centres undefined), in data set [1], the inhibition constant (Ki) turned out to be 75 nM.

`C[C@]12CCC(=O)C=C1NCC1C2CC[C@@]2(C)C1CC[C@@H]2C(=O)N1CCSCC1` (some centres undefined): in data set [1], the Ki is 570 nM.

Take `CC(C)(C)NC(=O)[C@H]1CCC2C3CNC4=CC(=O)CC[C@]4(C)C3CC[C@@]21C` (some centres undefined): in data set [1], the Ki turned out to be 820 nM.

Consider `CCN(CC)C(=O)[C@H]1CCC2C3CNC4=CC(=O)CC[C@]4(C)C3CC[C@@]21C` (some centres undefined), for which the Ki in data set [1] came to 750 nM. In addition, the IC50 in data set [2] amounted to 1.5 nM.

Regarding `C[C@]12CCC(=O)C=C1NCC1C2CC[C@@]2(C)C1CC[C@@H]2C(=O)NC(C1CCCCC1)C1CCCCC1` (some centres undefined), the Ki in data set [1] was determined as 20 nM. In addition, in data set [2], the IC50 worked out at 0.4 nM. In data set [3], this compound came in with a Reduction of 14%.

Consider `CC(C)(C)NC(=O)[C@H]1CC[C@H]2[C@@H]3CC=C4C=C(C(=O)O)CC[C@]4(C)[C@H]3CC[C@]12C` [EPRISTERIDE], for which, in data set [1], the Ki is greater than 5000 nM. Also, the IC50 in data set [2] amounted to 30 nM.

On to `CC(C)(C)NC(=O)[C@H]1CC[C@H]2[C@@H]3CC[C@H]4NC(=O)C=C[C@]4(C)[C@H]3CC[C@]12C` [FINASTERIDE], for which the IC50 came to 150 nM in data set [1] and 0.18 nM in data set [2]. In addition, the Reduction in data set [3] was 41%.

In general, Ki refers to a measure of affinity in units of concentration, obtained from inhibition or displacement. The term IC50 denotes the midpoint of a concentration-inhibition curve. Broadly, the bioavailability is dose-corrected exposure relative to a reference, in per cent. The half-life is how long it takes for the measured level to halve.
